Laboratory results as given in patent US9624180B2, “Squaric derivatives for the treatment of hepatitis C” (priority 2013, dated 2017).
Read-outs that look alike come from different tables or passages of the source.

System: HCV pseudoparticles (genotype 1a HCV E1 and E2 envelope, H77C isolate)
Test: HCV pseudoparticle infection assay (luciferase reporter, entry into Huh7 cells)
Format: cell-based, HCV genotype 1a
Conditions: Hepatitis C virus, Huh-7, 48 h
[1] = read-out: EC50 (1a, nM), genotype 1a HCV pseudoparticles, Huh7 cells, luciferase 2 days after infection, average of duplicates
[2] = read-out: EC50 (1a, nM), genotype 1a HCV pseudoparticles, Huh7 cells, luciferase 2 days after infection, class symbol

COC(=O)[C@H](CNc1c(OC)c(=O)c1=O)NC(=O)c1ccc(Nc2nc(NC3(c4ccc(Cl)cc4)CC3)nc(OCC(F)(F)F)n2)cc1 [Compound 1001, (S)-methyl 2-(4-(4-(1-(4-chlorophenyl)cyclopropylamino)-6-(2,2,2-trifluoroethoxy)-1,3,5-triazin-2-ylamino)benzamido)-3-(2-methoxy-3,4-dioxocyclobut-1-enylamino)propanoate]
EC50 [1]: 117 nM | EC50 [2]: 10 to 1000 nM

CCOc1c(NC[C@H](NC(=O)c2ccc(Nc3nc(NC4(c5ccc(Cl)cc5)CC4)nc(OCC(F)(F)F)n3)cc2)C(=O)OC)c(=O)c1=O [Compound 1002, (S)-methyl 2-(4-(4-(1-(4-chlorophenyl)cyclopropylamino)-6-(2,2,2-trifluoroethoxy)-1,3,5-triazin-2-ylamino)benzamido)-3-(2-ethoxy-3,4-dioxocyclobut-1-enylamino)propanoate]
EC50 [2]: 10 to 1000 nM

COC(=O)[C@H](CNc1c(O)c(=O)c1=O)NC(=O)c1ccc(Nc2nc(NC3(c4ccc(Cl)cc4)CC3)nc(OCC(F)(F)F)n2)cc1 [Compound 1003, (S)-methyl 2-(4-(4-(1-(4-chlorophenyl)cyclopropylamino)-6-(2,2,2-trifluoroethoxy)-1,3,5-triazin-2-ylamino)benzamido)-3-(2-hydroxy-3,4-dioxocyclobut-1-enylamino)propanoate]
EC50 [1]: 47 nM | EC50 [2]: 10 to 1000 nM

CCOc1c(NC[C@H](NC(=O)c2ccc(Nc3nc(NC4(c5ccc(Cl)cc5)CC4)nc(OCC(F)(F)F)n3)cc2)C(=O)O)c(=O)c1=O [Compound 1004, (S)-2-(4-(4-(1-(4-chlorophenyl)cyclopropylamino)-6-(2,2,2-trifluoroethoxy)-1,3,5-triazin-2-ylamino)benzamido)-3-(2-ethoxy-3,4-dioxocyclobut-1-enylamino)propanoic acid]
EC50 [2]: 10 to 1000 nM

CCOc1c(NCC(C)(C)CNC(=O)c2ccc(Nc3nc(NC4(c5ccc(Cl)cc5)CC4)nc(OCC(F)(F)F)n3)cc2)c(=O)c1=O [Compound 1005, 4-((4-((1-(4-chlorophenyl)cyclopropyl)amino)-6-(2,2,2-trifluoroethoxy)-1,3,5-triazin-2-yl)amino)-N-(3-((2-ethoxy-3,4-dioxocyclobut-1-en-1-yl)amino)-2,2-dimethylpropyl)benzamide]
EC50 [2]: 0.01 to 10 nM

CC(C)(CNC(=O)c1ccc(Nc2nc(NC3(c4ccc(Cl)cc4)CC3)nc(OCC(F)(F)F)n2)cc1)CNc1c(O)c(=O)c1=O [Compound 1006]
EC50 [1]: 0.52 nM | EC50 [2]: 0.01 to 10 nM

CC(C)(CNC(=O)c1ccc(Nc2nc(NC3(c4ccc(Cl)cc4)CC3)nc(OCC(F)(F)F)n2)cc1)CNc1c(NCC2CC2)c(=O)c1=O [Compound 1007]
EC50 [2]: 0.01 to 10 nM

CC(C)(CNC(=O)c1ccc(Nc2nc(NC3(c4ccc(Cl)cc4)CC3)nc(OCC(F)(F)F)n2)cc1)CNc1c(NCc2ccc(F)cc2F)c(=O)c1=O [Compound 1008]
EC50 [1]: 0.05 nM | EC50 [2]: 0.01 to 10 nM

CC(C)(CNC(=O)c1ccc(Nc2nc(NC3(c4ccc(Cl)cc4)CC3)nc(OCC(F)(F)F)n2)cc1)CNc1c(NC2CCCCCC2)c(=O)c1=O [Compound 1009]
EC50 [2]: 0.01 to 10 nM

CC(C)(CNC(=O)c1ccc(Nc2nc(NC3(c4ccc(Cl)cc4)CC3)nc(OCC(F)(F)F)n2)cc1)CNc1c(NCC2(CN3CCCC3)CC2)c(=O)c1=O [Compound 1010]
EC50 [2]: 0.01 to 10 nM

O=C(N[C@@H](CCNc1c(NCC2CC2)c(=O)c1=O)C(=O)NCC1CC1)c1ccc(Nc2nc(NC3(c4ccc(Cl)cc4)CC3)nc(OCC(F)(F)F)n2)cc1 [Compound 1011]
EC50 [1]: 5.98 nM | EC50 [2]: 0.01 to 10 nM

O=C(N[C@@H](CCNc1c(NC2CCCCCCC2)c(=O)c1=O)C(=O)O)c1ccc(Nc2nc(NC3(c4ccc(Cl)cc4)CC3)nc(OCC(F)(F)F)n2)cc1 [Compound 1012]
EC50 [2]: 0.01 to 10 nM

CC(C)(CNC(=O)c1ccc(Nc2nc(NC3(c4ccc(Cl)cc4)CC3)nc(OCC(F)(F)F)n2)cc1)CNc1c(Nc2ccccc2)c(=O)c1=O [Compound 1013]
EC50 [2]: 0.01 to 10 nM

O=C(N[C@@H](CCNc1c(Nc2ccccc2)c(=O)c1=O)C(=O)Nc1ccccc1)c1ccc(Nc2nc(NC3(c4ccc(Cl)cc4)CC3)nc(OCC(F)(F)F)n2)cc1 [Compound 1014]
EC50 [2]: 10 to 1000 nM

O=C(N[C@@H](CCNc1c(NCC2(Cn3ccnc3)CC2)c(=O)c1=O)C(=O)O)c1ccc(Nc2nc(NC3(c4ccc(Cl)cc4)CC3)nc(OCC(F)(F)F)n2)cc1 [Compound 1015]
EC50 [1]: 6.55 nM | EC50 [2]: 0.01 to 10 nM

O=C(N[C@@H](CCNc1c(Nc2ccccc2)c(=O)c1=O)C(=O)O)c1ccc(Nc2nc(NC3(c4ccc(Cl)cc4)CC3)nc(OCC(F)(F)F)n2)cc1 [Compound 1016]
EC50 [2]: 0.01 to 10 nM

O=C(N[C@@H](CCNc1c(N[C@@H]2C[C@H]3CC[C@@H]2C3)c(=O)c1=O)C(=O)O)c1ccc(Nc2nc(NC3(c4ccc(Cl)cc4)CC3)nc(OCC(F)(F)F)n2)cc1 [Compound 1017]
EC50 [2]: 0.01 to 10 nM

O=C(N[C@@H](CCNc1c(NC2CCCCCC2)c(=O)c1=O)C(=O)NC1CCCCCC1)c1ccc(Nc2nc(NC3(c4ccc(Cl)cc4)CC3)nc(OCC(F)(F)F)n2)cc1 [Compound 1018]
EC50 [2]: 0.01 to 10 nM

O=C(N[C@@H](CCNc1c(N[C@@H]2C[C@H]3CC[C@@H]2C3)c(=O)c1=O)C(=O)N[C@@H]1C[C@H]2CC[C@@H]1C2)c1ccc(Nc2nc(NC3(c4ccc(Cl)cc4)CC3)nc(OCC(F)(F)F)n2)cc1 [Compound 1019]
EC50 [2]: 10 to 1000 nM

O=C(N[C@@H](CCNc1c(NCc2ccc(F)cc2F)c(=O)c1=O)C(=O)NCc1ccc(F)cc1F)c1ccc(Nc2nc(NC3(c4ccc(Cl)cc4)CC3)nc(OCC(F)(F)F)n2)cc1 [Compound 1020]
EC50 [2]: 0.01 to 10 nM

CCOC(=O)[C@H](CCNc1c(NC2CCCCCC2)c(=O)c1=O)NC(=O)c1ccc(Nc2nc(NC3(c4ccc(Cl)cc4)CC3)nc(OCC(F)(F)F)n2)cc1 [Compound 1021]
EC50 [1]: 1.24 nM | EC50 [2]: 0.01 to 10 nM
